PubChem BioAssay AID2060899 (Molecular Pharmacology Branch, DTP, NCI, 2025)

Tested on: 565726-208-R1-J5-PDC complex spheroids, growth inhibition
Assay: Anticancer human tumor 565726-208-R1-J5-PDC patient-derived pancreatic adenocarcinoma cell line growth inhibition [RAS]
Conditions: for IC50: curve of first compound; for viability, T/C: stronger effect = lower value
How it was run: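 Multi-cell-type spheroids: tumor cells plus HUVEC endothelial cells and mesenchymal stem cells. RAS-pathway inhibitors were combined with targeted agents, each dosed in half-log steps down from clinical Cmax, or from 10 microM when Cmax was unknown.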

[1] = second compound 0.0316 µM, first compound 0.0316 µM
[2] = second compound 0.0316 µM, first compound 0.1 µM
[3] = second compound 0.0316 µM, first compound 0.316 µM
[4] = second compound 0.0316 µM, first compound 1 µM
[5] = second compound 0.1 µM, first compound 0.0316 µM
[6] = second compound 0.1 µM, first compound 0.1 µM
[7] = second compound 0.1 µM, first compound 0.316 µM
[8] = second compound 0.1 µM, first compound 1 µM
[9] = second compound 0.316 µM, first compound 0.0316 µM
[10] = second compound 0.316 µM, first compound 0.1 µM
[11] = second compound 0.316 µM, first compound 0.316 µM
[12] = second compound 0.316 µM, first compound 1 µM
[13] = second compound 1 µM, first compound 0.0316 µM
[14] = second compound 1 µM, first compound 0.1 µM
[15] = second compound 1 µM, first compound 0.316 µM
[16] = second compound 1 µM, first compound 1 µM
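Also: spheroids exposed to compounds for seven days before readout.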
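For viability, T/C in this document: 100% = DMSO vehicle control viability.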

## CC(Nc1ccc2c(c1)OCCn1cc(N3C(=O)OCC3C(F)F)nc1-2)C(N)=O (centres undefined) + C#Cc1c(F)ccc2cc(O)cc(-c3ncc4c(N5CC6CCC(C5)N6)nc(OCC56CCCN5CC(F)C6)nc4c3F)c12
Second compound 0.0316 µM
  IC50: > 10000 nM
Second compound 0.1 µM
  IC50: > 10000 nM
Second compound 0.316 µM
  IC50: > 10000 nM
Second compound 1 µM
  IC50: > 10000 nM
Second compound 3.16 µM
  IC50: 487 nM
Second compound 10 µM
  IC50: 527 nM
[1]
  viability, T/C: 73.2%
[2]
  viability, T/C: 101%
[3]
  viability, T/C: 86.5%
[4]
  viability, T/C: 60.4%
Second compound 0.0316 µM, first compound 3.16 µM
  viability, T/C: 92.9%
Second compound 0.0316 µM, first compound 10 µM
  viability, T/C: 70.2%
[5]
  viability, T/C: 87.5%
[6]
  viability, T/C: 102%
[7]
  viability, T/C: 73.9%
[8]
  viability, T/C: 53.5%
Second compound 0.1 µM, first compound 3.16 µM
  viability, T/C: 81.2%
Second compound 0.1 µM, first compound 10 µM
  viability, T/C: 65.5%
[9]
  viability, T/C: 105%
[10]
  viability, T/C: 109%
[11]
  viability, T/C: 72.9%
[12]
  viability, T/C: 55.1%
Second compound 0.316 µM, first compound 3.16 µM
  viability, T/C: 69.2%
Second compound 0.316 µM, first compound 10 µM
  viability, T/C: 62.5%
[13]
  viability, T/C: 114%
[14]
  viability, T/C: 102%
[15]
  viability, T/C: 57.2%
[16]
  viability, T/C: 60.2%
Second compound 1 µM, first compound 3.16 µM
  viability, T/C: 47.4%
Second compound 1 µM, first compound 10 µM
  viability, T/C: 54.6%
Second compound 3.16 µM, first compound 0.0316 µM
  viability, T/C: 90.5%
Second compound 3.16 µM, first compound 0.1 µM
  viability, T/C: 80%
Second compound 3.16 µM, first compound 0.316 µM
  viability, T/C: 56.4%
Second compound 3.16 µM, first compound 1 µM
  viability, T/C: 38.7%
Second compound 3.16 µM, first compound 3.16 µM
  viability, T/C: 35.6%
Second compound 3.16 µM, first compound 10 µM
  viability, T/C: 45.3%
Second compound 10 µM, first compound 0.0316 µM
  viability, T/C: 60.8%
Second compound 10 µM, first compound 0.1 µM
  viability, T/C: 68.9%
Second compound 10 µM, first compound 0.316 µM
  viability, T/C: 51.1%
Second compound 10 µM, first compound 1 µM
  viability, T/C: 46.7%
Second compound 10 µM, first compound 3.16 µM
  viability, T/C: 30.7%
Second compound 10 µM, first compound 10 µM
  viability, T/C: 34.7%

## CCN1CCN(Cc2ccc(Nc3ncc(F)c(-c4cc(F)c5nc(C)n(C(C)C)c5c4)n3)nc2)CC1 + C=CC(=O)N1CCN(c2nc(OCC3CCCN3C)nc3c(F)c(-c4nc(N)cc(C)c4C(F)(F)F)c(Cl)cc23)C(C)C1
Second compound 0.00316 µM
  IC50: > 1000 nM
Second compound 0.01 µM
  IC50: > 1000 nM
Second compound 0.0316 µM
  IC50: > 1000 nM
Second compound 0.1 µM
  IC50: > 1000 nM
Second compound 0.316 µM
  IC50: > 1000 nM
Second compound 1 µM
  IC50: > 1000 nM
Second compound 0.00316 µM, first compound 0.00316 µM
  viability, T/C: 92.8%
Second compound 0.00316 µM, first compound 0.01 µM
  viability, T/C: 137%
Second compound 0.00316 µM, first compound 0.0316 µM
  viability, T/C: 93.5%
Second compound 0.00316 µM, first compound 0.1 µM
  viability, T/C: 72.2%
Second compound 0.00316 µM, first compound 0.316 µM
  viability, T/C: 82.8%
Second compound 0.00316 µM, first compound 1 µM
  viability, T/C: 119%
Second compound 0.01 µM, first compound 0.00316 µM
  viability, T/C: 101%
Second compound 0.01 µM, first compound 0.01 µM
  viability, T/C: 134%
Second compound 0.01 µM, first compound 0.0316 µM
  viability, T/C: 98.2%
Second compound 0.01 µM, first compound 0.1 µM
  viability, T/C: 63%
Second compound 0.01 µM, first compound 0.316 µM
  viability, T/C: 79.2%
Second compound 0.01 µM, first compound 1 µM
  viability, T/C: 119%
Second compound 0.0316 µM, first compound 0.00316 µM
  viability, T/C: 163%
Second compound 0.0316 µM, first compound 0.01 µM
  viability, T/C: 144%
[1]
  viability, T/C: 109%
[2]
  viability, T/C: 77.1%
[3]
  viability, T/C: 61%
[4]
  viability, T/C: 103%
Second compound 0.1 µM, first compound 0.00316 µM
  viability, T/C: 135%
Second compound 0.1 µM, first compound 0.01 µM
  viability, T/C: 124%
[5]
  viability, T/C: 83.1%
[6]
  viability, T/C: 87.4%
[7]
  viability, T/C: 61.1%
[8]
  viability, T/C: 118%
Second compound 0.316 µM, first compound 0.00316 µM
  viability, T/C: 141%
Second compound 0.316 µM, first compound 0.01 µM
  viability, T/C: 136%
[9]
  viability, T/C: 85%
[10]
  viability, T/C: 100%
[11]
  viability, T/C: 58.8%
[12]
  viability, T/C: 116%
Second compound 1 µM, first compound 0.00316 µM
  viability, T/C: 117%
Second compound 1 µM, first compound 0.01 µM
  viability, T/C: 129%
[13]
  viability, T/C: 89.5%
[14]
  viability, T/C: 66%
[15]
  viability, T/C: 78.2%
[16]
  viability, T/C: 110%
